For data set [1], the system named is SH-SY5Y. Description: cells. Particulars: Homo sapiens, 24 h.
Data set [2] deals with T1, Inhibitor of nuclear factor kappa-B kinase subunit beta (Homo sapiens) (UniProt O14920).
T1 sequence (whole entry): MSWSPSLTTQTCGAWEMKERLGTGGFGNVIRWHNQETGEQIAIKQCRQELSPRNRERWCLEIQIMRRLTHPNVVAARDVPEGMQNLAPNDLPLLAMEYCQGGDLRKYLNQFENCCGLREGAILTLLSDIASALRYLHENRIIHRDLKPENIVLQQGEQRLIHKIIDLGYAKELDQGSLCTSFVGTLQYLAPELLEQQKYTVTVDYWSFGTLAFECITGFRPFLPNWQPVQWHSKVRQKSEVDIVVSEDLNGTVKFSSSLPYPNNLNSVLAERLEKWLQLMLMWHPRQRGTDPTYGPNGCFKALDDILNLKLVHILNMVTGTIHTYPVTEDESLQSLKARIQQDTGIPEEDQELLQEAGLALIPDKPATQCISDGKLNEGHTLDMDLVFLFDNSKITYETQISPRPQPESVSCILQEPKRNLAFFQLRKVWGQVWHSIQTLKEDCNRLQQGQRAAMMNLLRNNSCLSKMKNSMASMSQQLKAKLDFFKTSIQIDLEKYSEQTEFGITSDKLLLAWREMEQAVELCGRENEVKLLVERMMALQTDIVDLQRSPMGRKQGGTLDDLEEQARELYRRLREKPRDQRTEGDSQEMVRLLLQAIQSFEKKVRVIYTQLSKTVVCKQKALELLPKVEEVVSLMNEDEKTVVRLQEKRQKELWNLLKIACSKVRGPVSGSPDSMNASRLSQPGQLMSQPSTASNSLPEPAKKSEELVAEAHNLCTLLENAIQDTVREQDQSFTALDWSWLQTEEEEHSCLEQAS
Description: Inhibition of IKKbeta (unknown origin) at 0.5 uM relative to control.

For data set [3], the system named is SH-SY5Y. Briefly: Neuroprotective activity against glutamate-induced neurotoxicity in human SH-SY5Y cells assessed as cell viability at 10 uM incubated for 30 mins prior to glutamate challenge measured after 24 hrs by MTT assay (reference value: 73.8 +/- 4.5%). The class given is functional. Particulars: read-out: Activity. In general terms: Tetrazolium assays rely on reduction of a dye to a coloured formazan, in cell work by metabolically active cells.

Data set [4] addresses Cyclin-dependent kinase 9 (Homo sapiens) (UniProt P50750). Briefly: Inhibition of CDK9 (unknown origin) at 0.5 uM relative to control.
Data set [5] addresses RAC-alpha serine/threonine-protein kinase (Homo sapiens) (UniProt P31749). Description: Inhibition of PKBalpha (unknown origin) at 0.5 uM relative to control.
Data set [6] has as its target Cyclin-dependent kinase 2 (Homo sapiens) (UniProt P24941). Briefly: Inhibition of CDK2 (unknown origin) at 0.5 uM relative to control.
In data set [7] the test system is SH-SY5Y. Briefly: Neuroprotective activity against glutamate-induced neurotoxicity in human SH-SY5Y cells assessed as cell viability at 50 uM incubated for 30 mins prior to glutamate challenge measured after 24 hrs by MTT assay (reference value: 73.8 +/- 4.5%). Format: functional. Conditions: read-out: Activity.
Data set [8] deals with Protein kinase C alpha type (Homo sapiens) (UniProt P17252). Description: Inhibition of PKCalpha (unknown origin) at 0.5 uM relative to control.
The target in data set [9] is Insulin receptor (Homo sapiens) (UniProt P06213). Description: Inhibition of IR (unknown origin) at 0.5 uM relative to control.
Data set [10] concerns the target Vascular endothelial growth factor receptor 1 (Homo sapiens) (UniProt P17948). Briefly: Inhibition of VEGFR1 (unknown origin) at 0.5 uM relative to control.
Data set [11] deals with RAC-beta serine/threonine-protein kinase (Homo sapiens) (UniProt P31751). Briefly: Inhibition of PKBbeta (unknown origin) at 0.5 uM relative to control.
Data set [12] addresses Glycogen synthase kinase-3 beta (Homo sapiens) (UniProt P49841). Description: Inhibition of GSK3beta (unknown origin) at 0.5 uM relative to control.
Data set [13] can be described thus: Cytotoxicity against human SH-SY5Y cells assessed as cell viability at 30 uM after 24 hrs by MTT assay relative to control. The class given is cell-based. Conditions: read-out: Activity.
Data set [14] concerns the target Aurora kinase B (Homo sapiens) (UniProt Q96GD4). Briefly: Inhibition of Aurora B (unknown origin) at 0.5 uM relative to control.
For data set [15], the target named is Casein kinase I isoform alpha (Homo sapiens) (UniProt P48729). Description: Inhibition of CK1 (unknown origin) at 0.5 uM relative to control.
Data set [16] addresses Tyrosine-protein kinase ABL1 (Homo sapiens) (UniProt P00519). Description: Inhibition of Abl (unknown origin) at 0.5 uM relative to control.
For data set [17], the target named is T2, Aurora kinase A (Homo sapiens) (UniProt O14965).
T2 sequence (whole entry): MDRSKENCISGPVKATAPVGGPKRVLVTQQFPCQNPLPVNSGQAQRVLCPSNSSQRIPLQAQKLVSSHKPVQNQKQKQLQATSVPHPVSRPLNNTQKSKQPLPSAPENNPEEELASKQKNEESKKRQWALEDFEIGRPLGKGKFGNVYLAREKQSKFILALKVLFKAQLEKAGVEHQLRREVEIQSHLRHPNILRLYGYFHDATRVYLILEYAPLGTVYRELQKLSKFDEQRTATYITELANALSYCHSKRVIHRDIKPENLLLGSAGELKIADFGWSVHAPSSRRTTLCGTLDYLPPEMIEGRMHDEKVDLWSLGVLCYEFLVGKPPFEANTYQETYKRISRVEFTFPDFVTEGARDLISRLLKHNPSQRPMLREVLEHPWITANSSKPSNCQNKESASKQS
Briefly: Inhibition of Aurora A (unknown origin) at 0.5 uM relative to control.

Data set [18] deals with Dual specificity tyrosine-phosphorylation-regulated kinase 1A (Homo sapiens, UniProt Q13627). Description: Inhibition of Dyrk1A (unknown origin) using Woodtide as substrate after 30 mins by P81 membrane assay in presence of [33P]-g-ATP.

Chain of RAC-alpha serine/threonine-protein kinase (Homo sapiens) (P31749 whole entry): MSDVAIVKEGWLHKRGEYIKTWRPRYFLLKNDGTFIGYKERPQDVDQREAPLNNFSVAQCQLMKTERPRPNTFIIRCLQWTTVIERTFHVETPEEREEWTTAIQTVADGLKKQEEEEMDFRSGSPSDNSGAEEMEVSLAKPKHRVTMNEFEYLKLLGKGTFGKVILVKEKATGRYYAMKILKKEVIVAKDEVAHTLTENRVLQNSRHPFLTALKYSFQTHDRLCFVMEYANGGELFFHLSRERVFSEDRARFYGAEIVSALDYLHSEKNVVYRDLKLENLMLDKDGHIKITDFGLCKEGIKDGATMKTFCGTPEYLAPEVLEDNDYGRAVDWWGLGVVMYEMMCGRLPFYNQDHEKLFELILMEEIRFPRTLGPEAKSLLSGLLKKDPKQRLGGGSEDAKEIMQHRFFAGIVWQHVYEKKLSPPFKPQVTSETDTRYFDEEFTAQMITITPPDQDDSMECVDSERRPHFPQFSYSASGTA
Chain of Cyclin-dependent kinase 9 (Homo sapiens) (P50750 whole entry): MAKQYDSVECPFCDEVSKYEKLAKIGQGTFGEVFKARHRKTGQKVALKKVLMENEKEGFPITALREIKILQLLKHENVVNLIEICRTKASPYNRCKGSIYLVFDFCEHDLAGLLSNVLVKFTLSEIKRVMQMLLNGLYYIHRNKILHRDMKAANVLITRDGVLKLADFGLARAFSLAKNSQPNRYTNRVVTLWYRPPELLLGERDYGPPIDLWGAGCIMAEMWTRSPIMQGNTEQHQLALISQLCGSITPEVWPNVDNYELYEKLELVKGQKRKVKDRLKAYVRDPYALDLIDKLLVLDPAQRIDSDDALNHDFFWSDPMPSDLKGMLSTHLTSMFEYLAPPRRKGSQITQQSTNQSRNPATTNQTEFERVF
Chain of Casein kinase I isoform alpha (Homo sapiens) (P48729 2-337 limits assumed): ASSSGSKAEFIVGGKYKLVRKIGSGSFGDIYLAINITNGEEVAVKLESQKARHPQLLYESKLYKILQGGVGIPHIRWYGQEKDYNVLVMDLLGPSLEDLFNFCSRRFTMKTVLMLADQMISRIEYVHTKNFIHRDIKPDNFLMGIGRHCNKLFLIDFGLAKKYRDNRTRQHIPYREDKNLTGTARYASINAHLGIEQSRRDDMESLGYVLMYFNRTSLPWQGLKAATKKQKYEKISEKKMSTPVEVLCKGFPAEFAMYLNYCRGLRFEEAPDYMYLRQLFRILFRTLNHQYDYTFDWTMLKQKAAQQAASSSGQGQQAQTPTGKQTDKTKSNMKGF
Chain of RAC-beta serine/threonine-protein kinase (Homo sapiens) (P31751 whole entry): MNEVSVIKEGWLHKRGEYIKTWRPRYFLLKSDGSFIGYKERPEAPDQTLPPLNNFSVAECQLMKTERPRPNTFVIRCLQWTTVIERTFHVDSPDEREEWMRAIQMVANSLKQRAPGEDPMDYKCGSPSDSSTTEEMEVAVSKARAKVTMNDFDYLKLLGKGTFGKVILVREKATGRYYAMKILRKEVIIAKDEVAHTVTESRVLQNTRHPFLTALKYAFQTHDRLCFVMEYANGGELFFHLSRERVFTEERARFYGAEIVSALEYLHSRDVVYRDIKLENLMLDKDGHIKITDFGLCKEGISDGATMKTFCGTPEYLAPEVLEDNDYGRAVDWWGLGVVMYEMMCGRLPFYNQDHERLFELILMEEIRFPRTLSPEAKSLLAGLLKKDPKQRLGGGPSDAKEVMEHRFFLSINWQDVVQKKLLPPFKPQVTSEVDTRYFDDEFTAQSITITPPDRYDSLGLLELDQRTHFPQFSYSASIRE
Chain of Aurora kinase B (Homo sapiens) (Q96GD4 whole entry, canonical isoform): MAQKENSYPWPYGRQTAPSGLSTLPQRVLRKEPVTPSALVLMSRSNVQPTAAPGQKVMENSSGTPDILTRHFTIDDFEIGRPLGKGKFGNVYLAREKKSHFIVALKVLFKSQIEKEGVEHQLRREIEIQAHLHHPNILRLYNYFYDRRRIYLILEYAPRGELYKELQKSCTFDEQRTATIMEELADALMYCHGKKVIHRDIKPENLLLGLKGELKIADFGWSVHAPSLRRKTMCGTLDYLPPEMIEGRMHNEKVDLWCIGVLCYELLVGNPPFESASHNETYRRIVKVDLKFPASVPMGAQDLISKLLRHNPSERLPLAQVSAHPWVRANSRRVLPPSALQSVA
Chain of Glycogen synthase kinase-3 beta (Homo sapiens) (P49841 whole entry, looked up): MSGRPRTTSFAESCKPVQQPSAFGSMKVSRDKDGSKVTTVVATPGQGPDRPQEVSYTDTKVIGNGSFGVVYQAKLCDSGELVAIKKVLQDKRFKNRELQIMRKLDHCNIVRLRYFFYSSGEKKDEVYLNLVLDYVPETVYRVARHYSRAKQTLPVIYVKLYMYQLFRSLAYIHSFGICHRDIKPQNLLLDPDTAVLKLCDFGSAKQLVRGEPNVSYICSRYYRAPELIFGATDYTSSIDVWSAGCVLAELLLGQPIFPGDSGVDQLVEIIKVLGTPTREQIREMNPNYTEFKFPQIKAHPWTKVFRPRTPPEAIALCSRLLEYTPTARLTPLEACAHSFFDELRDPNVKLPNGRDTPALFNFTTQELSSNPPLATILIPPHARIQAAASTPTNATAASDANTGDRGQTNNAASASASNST
Chain of Insulin receptor (Homo sapiens) (P06213 28-758 limits assumed): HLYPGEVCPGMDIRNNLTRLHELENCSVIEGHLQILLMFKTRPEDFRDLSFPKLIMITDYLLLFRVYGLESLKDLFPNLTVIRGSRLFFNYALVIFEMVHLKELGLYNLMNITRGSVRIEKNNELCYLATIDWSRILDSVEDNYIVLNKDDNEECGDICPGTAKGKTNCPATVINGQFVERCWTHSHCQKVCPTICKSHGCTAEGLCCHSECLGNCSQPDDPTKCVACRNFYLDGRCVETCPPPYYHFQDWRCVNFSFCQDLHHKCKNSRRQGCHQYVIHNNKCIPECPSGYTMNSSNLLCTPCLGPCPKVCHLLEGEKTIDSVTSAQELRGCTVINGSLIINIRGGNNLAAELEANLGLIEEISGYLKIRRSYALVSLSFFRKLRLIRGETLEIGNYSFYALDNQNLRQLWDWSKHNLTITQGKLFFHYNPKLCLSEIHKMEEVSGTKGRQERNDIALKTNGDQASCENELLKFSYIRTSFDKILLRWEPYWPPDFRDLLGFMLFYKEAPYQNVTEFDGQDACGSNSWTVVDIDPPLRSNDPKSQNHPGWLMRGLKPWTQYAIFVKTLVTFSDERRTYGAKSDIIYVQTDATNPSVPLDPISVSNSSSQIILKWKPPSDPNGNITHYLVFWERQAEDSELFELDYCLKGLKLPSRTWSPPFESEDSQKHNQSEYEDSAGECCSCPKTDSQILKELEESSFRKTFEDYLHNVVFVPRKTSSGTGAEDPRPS
Chain of Insulin receptor (Homo sapiens) (P06213 763-1382 limits assumed): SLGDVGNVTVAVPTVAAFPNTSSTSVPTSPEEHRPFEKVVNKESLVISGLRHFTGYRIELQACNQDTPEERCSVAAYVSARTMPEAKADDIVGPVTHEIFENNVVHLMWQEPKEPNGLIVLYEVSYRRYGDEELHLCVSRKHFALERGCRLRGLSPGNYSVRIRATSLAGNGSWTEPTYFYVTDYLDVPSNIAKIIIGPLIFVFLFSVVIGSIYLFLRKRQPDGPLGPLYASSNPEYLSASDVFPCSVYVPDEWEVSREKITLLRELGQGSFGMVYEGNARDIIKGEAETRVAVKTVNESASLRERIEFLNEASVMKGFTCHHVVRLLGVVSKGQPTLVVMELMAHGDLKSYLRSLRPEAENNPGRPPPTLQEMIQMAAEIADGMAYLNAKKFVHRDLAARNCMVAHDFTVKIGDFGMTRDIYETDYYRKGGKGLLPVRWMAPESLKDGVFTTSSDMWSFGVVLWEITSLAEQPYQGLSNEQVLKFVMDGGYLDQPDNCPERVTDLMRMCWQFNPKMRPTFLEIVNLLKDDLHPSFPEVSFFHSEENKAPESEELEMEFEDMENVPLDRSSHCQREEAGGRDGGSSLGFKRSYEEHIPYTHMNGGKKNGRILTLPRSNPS

Usually IC50 stands for the concentration that inhibits the measured activity by half. In general, inhibition refers to the relative decrease from the control value, in per cent. Higher therefore signals strong suppression. As for `Nc1nccc(-c2cn(C(=O)N3CCOCC3)c3ccc(Br)cc23)n1`, the IC50 with SH-SY5Y [1] was more than 100000 nM; in [18] it was 500 nM. Besides, the inhibition was 7.8% in [2]; 12.6% in [4]; 16.4% in [5]; 0% in data set [6]; 26.5% in [8]; 11.1% in data set [9]. Also, the inhibition in data set [10] is 0%; in data set [11], 12.6%; in data set [12], 22.7%; in data set [14], 0%; in data set [15] it was 13.8%; in data set [16] it was 3%. Besides, the inhibition in data set [17] was 0%. Besides, the viability at 10 µM in the data set on SH-SY5Y [3] is 82.5%. The viability at 50 µM in the data set on SH-SY5Y [7] was determined as 86.4%. Further, the viability at 24 h, 30 µM in data set [13] came to 87%.

For the origin of these results see ChEMBL document CHEMBL3596148, “Meridianin derivatives as potent Dyrk1A inhibitors and neuroprotective agents” (Bioorg Med Chem Lett, 2015).
